Columns and labels:
CT26 tumor cells = test: CT26 syngeneic mouse tumor model (survival and tumor volume); format: in vivo; conditions: for Median Survival: CT26 tumor bearing BALB/cJ mice, PF-06952229 30 mg/kg PO BID 7 days on/7 off, palbociclib 10 mg/kg PO BID, PF-06873600 50 mg/kg PO BID, survival endpoint tumor volume 2000 mm^3
Experimental: CT26 cells were obtained from American Type Culture Collection (ATCC) and cultured in Roswell Park Memorial Institute (RPM11640) supplemented with 10% fetal bovine serum (FBS). All cells were maintained in a humidified incubator at 37° C. with 5% carbon dioxide (CO2). Female Balb/cJ mice were obtained from Jackson Laboratories at 8 weeks of age. To generate the syngeneic model, 0.25 million CT26 tumor cells were subcutaneously implanted into the right flank of female BALB/cJ mice. Tumor bearing mice were randomized into six treatment groups based on average tumor sizes of approximately 50 mm^3 per group, on Day 10 post tumor cell implantation. Study groups included vehicle, 30 mg/kg PF-06952229, 10 mg/kg PD-0332991 (Palbociclib), PF-06873600 (CDK 2/4/6 inhibitor), combination of PF-06952229 +PD-0332991 and combination of PF-06952229+PF-06873600. PF-06952229 was administered orally twice daily (BID) with 7 days on and 7 days off schedule. PD-0332991 or PF-06873600 was administered orally BID continuously, until the end of the study.
Tumor volumes were measured three times a week. Tumor volume was calculated based on two dimensional caliper measurement with cubic millimeter volume calculated using the formula (length×width2)×0.5. Mice were sacrificed when the tumor volumes reached 2000 mm^3, which was the survival endpoint for this study. Survival curves were plotted using GraphPad Prism 7 software. Statistical analyses were performed using the Log-rank (Mantel-Cox) test.

[1] = test system: MCF7 human ER+ breast cancer cells; test: MCF7 human ER+ xenograft mouse tumor model (tumor volume); format: in vivo; conditions: NSG mice; Day 21 post-treatment initiation; PF-06952229 30 mg/kg PO BID 7 on/7 off, PD-0332991 10 mg/kg PO BID, PF-05279929 10 mg/kg SC twice per week; result in words
Experimental: MCF7 human ER^+ breast cancer cells were obtained from American Type Culture
Collection (ATCC) and cultured in Roswell Park Memorial Institute (RPMI1640) supplemented with 10% fetal bovine serum (FBS). All cells were maintained in a humidified incubator at 37° C. with 5% carbon dioxide (CO2). Female NSG mice were obtained from Jackson Laboratories at 7 weeks of age. To generate the xenograft model, 17β-ESTRADIOL pellets (0.36 mg, 90-day release) were subcutaneously implanted into the left flank of female NSG mice, 7 days before the tumor cell implantation. Then 5 million MCF7 cancer cells were subcutaneously implanted into the right axial region of female NSG mice. Tumor-bearing mice were randomized into treatment groups based on average tumor sizes of approximately 180 mm^3, on Day 27 post-tumor cell implantation, and treatments were initiated. […]
Tumor volumes were measured two times a week. Tumor volume was calculated based on two-dimensional caliper measurement with cubic millimeter volume calculated using the formula (length×width^2)×0.5. Body weights were measured two times a week. […] Comparisons of treated groups to control group or to other treated groups are made using a t statistic under the ANCOVA model with fold change and the associated 95% confidence interval calculated.

pSMAD2 = pSMAD2 Bioassay of MCF7 xenograft tumor samples; format: in vivo, human; conditions: tumor samples Day 21 post-treatment initiation; result in words
Experimental: pSMAD2 Bioassay: Tumor samples were collected and snap-frozen in 2.0 mL cryogenic tubes (Nalgene™) prior to analysis. Thawed tumor samples were homogenized in cell extraction buffer (Invitrogen, Carlsbad, Calif.) with addition of protease and phosphatase inhibitors. Tumor lysates were centrifuged to pellet insoluble debris, and the clarified supernatants were transferred to new tubes. pSmad2 was measured using a 6-Plex TGFbeta Signaling Magnetic Bead Kit (Millipore, Burlington, Mass.). All assays were carried out at room temperature. After blocking a 96-well black round-bottom plate with assay buffer for 10 minutes, 25 μL of the working microsphere bead mixture (beads were diluted to 1× with assay buffer from kit) and 25 μL of 1:10 diluted tumor lysate (1:10 dilution with assay buffer) were added to the plate. […] After washing, the beads were resuspended in 150 μL/well of sheath fluid (Bio-Rad catalog # 171-000055) and analyzed using a Bio-Plex 200 analyzer (Bio-Rad, Hercules Calif.). The mean fluorescence intensity (MFI) from each well was determined using Bio-Plex Manager Software, version 6.1 (Bio-Rad). […]
Total Smad2 Bioassay: PathScan Total Smad2 Sandwich ELISA Kit (Cell signaling, Catolog #7244C) was used to determine the total Smad2 protein according to manufacturer's instructions. […] The absorbance of the samples at 450 nm was measured on a Spectramax plate reader (Molecular Devices).

pS807/811 Rb = test: Phospho-Rb Ser807/811 Bioassay of MCF7 xenograft tumor lysates; conditions: tumor samples Day 21 post-treatment initiation; result in words

Structure (SMILES) | Median Survival (CT26 tumor cells) [days] | Tumor growth inhibition [1] | Inhibition of pSMAD2 (pSMAD2) | pS807/811 Rb levels (pS807/811 Rb) | Tumor growth inhibition (CT26 tumor cells; Day 17 post-treatment initiation, result in words) | Survival (CT26 tumor cells; Day 40 post-treatment initiation, result in words)
C[C@@]1(O)CCC[C@H]1n1c(=O)c(C(F)F)cc2cnc(NC3CCN(S(C)(=O)=O)CC3)nc21 [PF-06873600] | 26.5 |  |  |  |  | 
CC(C)c1cnc(-c2cc(Cl)ccc2F)cc1Nc1ccncc1C(=O)NC(CO)CO [PF-06952229, 4-(2-(5-chloro-2-fluorophenyl)-5-isopropylpyridin-4-ylamino)-N-(1,3-dihydroxypropan-2-yl)nicotinamide] | 24 | did not significantly inhibit tumor growth | significant inhibition of pSMAD2 | slight increase | did not significantly inhibit tumor growth | did not significantly increase survival
CC(=O)c1c(C)c2cnc(Nc3ccc(N4CCNCC4)cn3)nc2n(C2CCCC2)c1=O [Palbociclib, 6-acetyl-8-cyclopentyl-5-methyl-2-(5-piperazin-1-yl-pyridin-2-ylamino)-8H-pyrido[2,3-d]pyrimidin-7-one, reference compound] | 26.5 |  |  | slight decrease |  | 

Source: patent US20210346384A1, “COMBINATIONS OF TGF-BETA INHIBITORS AND CDK INHIBITORS FOR CANCER TREATMENTS” (PFIZER INC., priority 2018, published 2021)
